Literature values as cited in article PMC9516332 (Frontiers in Oncology, 2022).
Read-outs that look alike come from different tables or passages of the source.

What was measured:
Details in all cases: cited from earlier work
[1] = target: panel of 255 wild-type kinases (Homo sapiens, UniProt Q9UQM7)
[2] = target: T1, panel of 255 wild-type kinases (Homo sapiens, UniProt Q12851)
T1 sequence (Q12851 1-820): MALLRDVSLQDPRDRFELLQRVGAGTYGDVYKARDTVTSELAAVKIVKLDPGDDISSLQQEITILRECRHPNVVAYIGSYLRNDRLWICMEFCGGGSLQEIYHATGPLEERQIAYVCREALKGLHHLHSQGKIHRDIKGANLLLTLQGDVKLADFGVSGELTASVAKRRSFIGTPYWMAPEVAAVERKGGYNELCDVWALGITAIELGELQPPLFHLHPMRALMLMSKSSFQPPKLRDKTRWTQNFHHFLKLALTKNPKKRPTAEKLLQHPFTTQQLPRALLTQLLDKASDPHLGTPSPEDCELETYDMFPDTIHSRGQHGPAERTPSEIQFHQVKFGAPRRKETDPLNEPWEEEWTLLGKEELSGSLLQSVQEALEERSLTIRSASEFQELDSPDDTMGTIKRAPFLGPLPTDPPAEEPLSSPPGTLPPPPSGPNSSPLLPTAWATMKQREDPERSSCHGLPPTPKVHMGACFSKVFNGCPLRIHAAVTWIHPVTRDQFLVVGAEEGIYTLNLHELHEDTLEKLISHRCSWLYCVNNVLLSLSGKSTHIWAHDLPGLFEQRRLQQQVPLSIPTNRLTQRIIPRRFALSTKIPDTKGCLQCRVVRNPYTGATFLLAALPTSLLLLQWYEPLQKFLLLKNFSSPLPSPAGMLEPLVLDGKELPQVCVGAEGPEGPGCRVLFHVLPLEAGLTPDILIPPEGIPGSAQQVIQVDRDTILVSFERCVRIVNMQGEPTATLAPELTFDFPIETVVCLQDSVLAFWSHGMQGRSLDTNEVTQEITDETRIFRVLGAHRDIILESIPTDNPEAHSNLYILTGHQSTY

[3] = target: panel of 255 wild-type kinases (Homo sapiens, UniProt O75676)
[4] = target: panel of 255 wild-type kinases (Homo sapiens, UniProt Q08345)
[5] = target: T2, panel of 255 wild-type kinases (Homo sapiens, UniProt P30530)
T2 sequence (P30530 26-894): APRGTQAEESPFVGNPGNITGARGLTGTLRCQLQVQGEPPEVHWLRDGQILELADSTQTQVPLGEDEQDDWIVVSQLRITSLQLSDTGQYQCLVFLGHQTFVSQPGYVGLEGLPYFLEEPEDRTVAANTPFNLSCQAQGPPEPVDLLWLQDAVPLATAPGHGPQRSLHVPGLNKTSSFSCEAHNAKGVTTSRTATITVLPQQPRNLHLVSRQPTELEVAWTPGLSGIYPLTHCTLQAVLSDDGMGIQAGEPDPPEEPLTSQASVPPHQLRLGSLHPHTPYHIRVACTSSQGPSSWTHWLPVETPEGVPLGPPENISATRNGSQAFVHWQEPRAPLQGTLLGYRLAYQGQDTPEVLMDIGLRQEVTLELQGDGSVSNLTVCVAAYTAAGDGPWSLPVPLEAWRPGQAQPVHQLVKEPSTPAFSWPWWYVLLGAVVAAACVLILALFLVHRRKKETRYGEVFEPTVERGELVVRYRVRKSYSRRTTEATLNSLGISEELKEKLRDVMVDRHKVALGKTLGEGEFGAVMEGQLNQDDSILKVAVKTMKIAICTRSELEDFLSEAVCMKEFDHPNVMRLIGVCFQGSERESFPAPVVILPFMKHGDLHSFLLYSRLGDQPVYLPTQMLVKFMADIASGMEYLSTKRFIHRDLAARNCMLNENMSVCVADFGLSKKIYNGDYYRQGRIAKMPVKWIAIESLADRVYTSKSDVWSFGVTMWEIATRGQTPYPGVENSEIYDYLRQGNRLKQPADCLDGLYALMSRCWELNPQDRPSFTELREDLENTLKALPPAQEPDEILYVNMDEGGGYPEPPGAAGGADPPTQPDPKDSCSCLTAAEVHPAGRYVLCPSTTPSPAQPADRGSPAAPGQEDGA

[6] = target: panel of 255 wild-type kinases (Homo sapiens, UniProt P16591)
[7] = target: panel of 255 wild-type kinases (Homo sapiens, UniProt P05771)
[8] = target: panel of 255 wild-type kinases (Homo sapiens, UniProt P22694)
[9] = target: panel of 255 wild-type kinases (Homo sapiens, UniProt P12931)
[10] = CaMK2α kinase assay, 1 µmol/L single concentration, ref DOI: 10.1158/1535-7163.MCT-18-0877
[11] = kinase MAP4K2, 1 µmol/L single concentration, ref DOI: 10.1158/1535-7163.MCT-18-0877
[12] = MSK2, 1 µmol/L single concentration, ref DOI: 10.1158/1535-7163.MCT-18-0877
[13] = kinase DDR1, 1 µmol/L single concentration, ref DOI: 10.1158/1535-7163.MCT-18-0877
[14] = AXL kinase assay, 1 µmol/L single concentration, ref DOI: 10.1158/1535-7163.MCT-18-0877
[15] = kinase FER, 1 µmol/L single concentration, ref DOI: 10.1158/1535-7163.MCT-18-0877
[16] = kinase PKCβ1, 1 µmol/L single concentration, ref DOI: 10.1158/1535-7163.MCT-18-0877
[17] = kinase PKACβ, 1 µmol/L single concentration, ref DOI: 10.1158/1535-7163.MCT-18-0877
[18] = kinase SRC, 1 µmol/L single concentration, ref DOI: 10.1158/1535-7163.MCT-18-0877
[19] = CaMK2α kinase assay, 1 µmol/L single concentration, ref DOI: 10.1371/journal.pone.0092146
[20] = kinase MAP4K2, 1 µmol/L single concentration, ref DOI: 10.1371/journal.pone.0092146
[21] = kinase DDR1, 1 µmol/L single concentration, ref DOI: 10.1371/journal.pone.0092146
[22] = AXL kinase assay, 1 µmol/L single concentration, ref DOI: 10.1371/journal.pone.0092146
[23] = kinase FER, 1 µmol/L single concentration, ref DOI: 10.1371/journal.pone.0092146
[24] = kinase SRC, 1 µmol/L single concentration, ref DOI: 10.1371/journal.pone.0092146
[25] = MSK2, 1 µmol/L single concentration, ref DOI: 10.1371/journal.pone.0092146
[26] = kinase PKCβ1, 1 µmol/L single concentration, ref DOI: 10.1371/journal.pone.0092146
[27] = kinase PKACβ, 1 µmol/L single concentration, ref DOI: 10.1371/journal.pone.0092146

SMILES | %-inhibition CaMK2α [1, 10] [%] | %-inhibition at 1 µmol/L, MAP4K2 [2, 11] [%] | %-inhibition, MSK2 [3, 12] [%] | %-inhibition at 1 µmol/L, DDR1 [4, 13] [%] | %-inhibition AXL [5, 14] [%] | %-inhibition at 1 µmol/L, FER [6, 15] [%] | %-inhibition at 1 µmol/L, PKCβ1 [7, 16] [%] | %-inhibition at 1 µmol/L, PKACβ [8, 17] [%] | %-inhibition at 1 µmol/L, SRC [9, 18] [%] | %-inhibition CaMK2α [1, 19] [%] | %-inhibition at 1 µmol/L, FER [6, 23] [%] | further results
O=C(c1ccc(F)c(F)c1Nc1ccc(I)cc1F)N1CC(O)([C@@H]2CCCCN2)C1 [cobimetinib] | 7 | -5.57 | -0.0695 | 6.37 | 3 | 4 | -4.35 | -6.51 | 6.45 |  |  | 
CC(C)(C)c1nc(-c2cccc(NS(=O)(=O)c3c(F)cccc3F)c2F)c(-c2ccnc(N)n2)s1 [dabrafenib] |  |  |  |  |  |  |  |  |  | -2.14 | 22 | %-inhibition at 1 µmol/L, MAP4K2 [2, 20]: 8%; %-inhibition at 1 µmol/L, DDR1 [4, 21]: 96%; %-inhibition AXL [5, 22]: 30%; %-inhibition at 1 µmol/L, SRC [9, 24]: 68%
Cc1cc(Nc2ncc(Cl)c(Nc3ccccc3S(=O)(=O)C(C)C)n2)c(OC(C)C)cc1C1CCNCC1 [ceritinib] | 15 | 7.37 | 2.2 | 50 | 56 | 100 | 6.66 | -11 | 9 |  |  | 
CCc1cc2c(cc1N1CCC(N3CCOCC3)CC1)C(C)(C)c1[nH]c3cc(C#N)ccc3c1C2=O [alectinib] | 0.405 | 7.56 | 1.22 | 16 | 59 | 66 | -1.89 | 2 | 10 |  |  | 
CCCS(=O)(=O)Nc1ccc(F)c(C(=O)c2c[nH]c3ncc(-c4ccc(Cl)cc4)cc23)c1F [vemurafenib] |  |  |  |  |  |  |  |  |  | -4.25 | 11 | %-inhibition at 1 µmol/L, MAP4K2 [2, 20]: 43%; %-inhibition, MSK2 [3, 25]: -1%; %-inhibition at 1 µmol/L, DDR1 [4, 21]: 52%; %-inhibition AXL [5, 22]: 20%; %-inhibition at 1 µmol/L, PKCβ1 [7, 26]: -3.81%; %-inhibition at 1 µmol/L, PKACβ [8, 27]: 2.66%; %-inhibition at 1 µmol/L, SRC [9, 24]: 52%
COc1cc(N2CCC(N3CCN(C)CC3)CC2)ccc1Nc1ncc(Cl)c(Nc2ccccc2P(C)(C)=O)n1 [brigatinib] |  |  |  |  |  |  |  |  |  |  |  | %-inhibition CaMK2α [1]: 86%; %-inhibition at 1 µmol/L, MAP4K2 [2]: 77%; %-inhibition, MSK2 [3]: 10%; %-inhibition at 1 µmol/L, DDR1 [4]: 84%; %-inhibition AXL [5]: 97%; %-inhibition at 1 µmol/L, FER [6]: 102%; %-inhibition at 1 µmol/L, PKCβ1 [7]: 7.42%; %-inhibition at 1 µmol/L, PKACβ [8]: 9%; %-inhibition at 1 µmol/L, SRC [9]: 65%
CC(=O)Nc1cccc(-n2c(=O)n(C3CC3)c(=O)c3c(Nc4ccc(I)cc4F)n(C)c(=O)c(C)c32)c1 [trametinib] |  |  |  |  |  |  |  |  |  | -1.65 | 4.28 | %-inhibition at 1 µmol/L, MAP4K2 [2, 20]: 4%; %-inhibition, MSK2 [3, 25]: -4.75%; %-inhibition AXL [5, 22]: -1.12%; %-inhibition at 1 µmol/L, PKCβ1 [7, 26]: -3.47%; %-inhibition at 1 µmol/L, PKACβ [8, 27]: -5%; %-inhibition at 1 µmol/L, SRC [9, 24]: -5.4%
CC#CC(=O)N1CCC[C@H]1c1nc(-c2ccc(C(=O)Nc3ccccn3)cc2)c2c(N)nccn12 [acalabrutinib] | -3.43 | -11 | 1.53 | 8 | -0.457 | -2.54 | -11 | -13 | 10 |  |  | 
C=CC(=O)Nc1cc(Nc2nccc(-c3cn(C)c4ccccc34)n2)c(OC)cc1N(C)CCN(C)C [osimertinib] | 2 | -0.698 | 0.681 | 46 | 43 | 78 | 9 | -6 | 9 |  |  | 
CO[C@@H]1[C@H](N(C)C(=O)c2ccccc2)C[C@H]2O[C@]1(C)n1c3ccccc3c3c4c(c5c6ccccc6n2c5c31)C(=O)NC4 [midostaurin] |  | 94 | 77 | 98 | 87 | 101 | 89 | 91 | 79 |  |  | 
C=CC(=O)N1CCC[C@@H](n2nc(-c3ccc(Oc4ccccc4)cc3)c3c(N)ncnc32)C1 [ibrutinib] | -1.35 | -4.43 | -2 | 37 | 9 |  | -3 | -9 |  |  |  | 
C[C@@H](Oc1cc(-c2cnn(C3CCNCC3)c2)cnc1N)c1c(Cl)ccc(F)c1Cl [crizotinib] |  |  |  |  |  |  |  |  |  | -2.77 | 90 | %-inhibition, MSK2 [3, 25]: -1.8%; %-inhibition at 1 µmol/L, DDR1 [4, 21]: 97%; %-inhibition at 1 µmol/L, PKCβ1 [7, 26]: -3%; %-inhibition at 1 µmol/L, PKACβ [8, 27]: -2.3%
